In US11110303B2, “Hapten-enhanced chemoimmunotherapy by ultra-minimum incision personalized intratumoral chemoimmunotherapy” (priority 2014, dated 2021):
Like-named read-outs stand apart in the source and are kept apart here.

For `Nc1ccn([C@@H]2O[C@H](CO)[C@@H](O)[C@@H]2O)c(=O)n1` [Ara-C alone, Cytosine Arabinoside], the “drug retention in tumor” value (12 hours after intratumoral injection) was 16%, the “retention rate of Ara-C in tumor” value (24 hours after intratumoral injection) was 0% and the “retention rate of Ara-C in tumor” value (fifteen minutes after intratumoral injection) was 100%. For the same compound, the “retention rate of Ara-C in tumor” value (four hours after intratumoral injection) was 16%.
